Measured values taken from ChEMBL document CHEMBL1201862, “PubChem BioAssay data set” (2004).
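Grown in 96-well plates, cells were treated for 48 hours with each compound at five concentrations. Insufficient inhibition: endpoint recorded as highest concentration tested. GI50 is the concentration that inhibits growth by half.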 Active and inactive are the calls of the source. Rule as the data show it: active = GI50 up to about 1.1 µM and inactive = higher.

Experiments:
Assay in all cases: NCI-60 cell line screen, 48 h
[1] = system: KM-20L2
[2] = system: SNB-75
[3] = system: NCI-H226
[4] = system: OVCAR-4
[5] = system: SR
[6] = system: DLD-1
[7] = system: UACC-62
[8] = system: M19-MEL
[9] = system: IGROV-1
[10] = system: SNB-19
[11] = system: M14
[12] = system: NCI-H460
[13] = system: HT-29
[14] = system: HOP-92
[15] = system: SF-539
[16] = system: EKVX
[17] = system: SF-295
[18] = system: NCI-H23
[19] = system: Hs-578T
[20] = system: PC-3

Measured: GI50

CCNC(=O)COc1ccc(Br)cc1Br
inactive: [1] > 100 µM | [2] > 100 µM | [3] > 100 µM | [4] > 100 µM | [5] > 100 µM | [6] > 100 µM | [7] 33.3 µM | [8] > 100 µM | [9] > 100 µM | [10] 54.7 µM | [11] > 100 µM | [12] > 100 µM | [13] > 100 µM | [14] 29 µM | [15] > 100 µM | [16] 1.98 µM | [17] > 100 µM | [18] > 100 µM

Cc1cccc(C)c1NC(=O)C(=O)CC(=O)CO
inactive: [1] > 100 µM | [2] 73.5 µM | [3] > 100 µM | [4] > 100 µM | [5] > 100 µM | [6] > 100 µM | [7] > 100 µM | [8] > 100 µM | [9] > 100 µM | [10] > 100 µM | [11] > 100 µM | [12] > 100 µM | [13] > 100 µM | [14] > 100 µM | [15] > 100 µM | [16] > 100 µM | [17] > 100 µM | [18] > 100 µM

Cc1ccc(NC(=O)CC(=O)N2N=C(N(CCC#N)c3cccc(C)c3)CC2c2ccccc2)cc1 (centres undefined)
inactive: [1] > 100 µM | [2] > 100 µM | [3] > 100 µM | [4] > 100 µM | [5] > 100 µM | [6] > 100 µM | [7] > 100 µM | [8] > 100 µM | [9] > 100 µM | [10] > 100 µM | [11] > 100 µM | [12] > 100 µM | [13] > 100 µM | [14] > 100 µM | [15] > 100 µM | [16] 5.97 µM | [17] > 100 µM | [18] > 100 µM

COc1cc(C)c(C)c(OC(=O)c2c(C)c(C)c(OC)c(C)c2OC)c1C
inactive: [1] 4.17 µM | [2] 4.04 µM | [3] 15.7 µM | [4] 10.3 µM | [5] 4.23 µM | [6] 7.31 µM | [7] 6.71 µM | [8] 7.6 µM | [9] 8.67 µM | [10] 15.4 µM | [11] 6.75 µM | [12] 3.98 µM | [13] 3.85 µM | [14] 7.19 µM | [15] 14.1 µM | [16] 15.3 µM | [17] 3.92 µM | [18] 10.4 µM

CN(C)C(=S)/N=c1\ssc(=S)n1Cc1cccs1
inactive: [1] 1.87 µM | [2] 1.52 µM | [3] 13.7 µM | [4] 14.6 µM | [5] 4.88 µM | [6] 3.82 µM | [19] 1.51 µM | [7] 2.7 µM | [8] 3.16 µM | [9] 4.11 µM | [10] 6.05 µM | [11] 3.01 µM | [12] 3.73 µM | [13] 2.62 µM | [14] 5.26 µM | [15] 2.55 µM | [20] 2.4 µM | [16] 26.2 µM | [17] 1.93 µM | [18] 3.75 µM

CC(=O)C1C(=O)C(=O)N(c2ccccc2N2C(=O)C(=O)C(C(C)=O)C2=O)C1=O (centres undefined)
inactive: [1] > 100 µM | [2] > 100 µM | [3] > 100 µM | [4] > 100 µM | [5] > 100 µM | [6] > 100 µM | [7] > 100 µM | [8] > 100 µM | [9] > 100 µM | [10] > 100 µM | [11] > 100 µM | [12] > 100 µM | [13] > 100 µM | [14] > 100 µM | [15] > 100 µM | [16] 39.9 µM | [17] > 100 µM | [18] > 100 µM

OCC1CC2C=CCC(C2)C1 (centres undefined)
inactive: [1] > 100 µM | [2] > 100 µM | [3] > 100 µM | [4] > 100 µM | [5] > 100 µM | [6] > 100 µM | [7] > 100 µM | [8] > 100 µM | [9] > 100 µM | [10] > 100 µM | [11] > 100 µM | [12] > 100 µM | [13] > 100 µM | [14] > 100 µM | [15] > 100 µM | [16] > 100 µM | [17] > 100 µM | [18] > 100 µM

NC1CC(n2ccc(=O)[nH]c2=O)OC1C(O)CO (centres undefined)
inactive: [1] > 100 µM | [2] > 100 µM | [3] > 100 µM | [4] > 100 µM | [5] > 100 µM | [6] > 100 µM | [7] > 100 µM | [8] > 100 µM | [9] > 100 µM | [10] > 100 µM | [11] > 100 µM | [12] > 100 µM | [13] > 100 µM | [14] > 100 µM | [15] > 100 µM | [16] > 100 µM | [17] > 100 µM | [18] > 100 µM

CC(=O)Nc1ccc(/C=C/C(=O)c2sc(-n3nc(-c4ccccc4)cc3-c3ccccc3)nc2C)cc1
inactive: [1] > 10 µM | [2] > 10 µM | [3] > 10 µM | [4] 78.7 µM | [5] > 10 µM | [6] > 10 µM | [7] > 10 µM | [8] > 10 µM | [9] > 10 µM | [10] > 10 µM | [11] > 10 µM | [12] > 10 µM | [13] 84.7 µM | [14] > 10 µM | [15] > 10 µM | [16] 8.99 µM | [17] > 10 µM | [18] > 10 µM

COc1nc(NC2OCC(O)C(O)C2O)c(NC2OCC(O)C(O)C2O)c(=O)n1C (centres undefined)
inactive: [1] > 100 µM | [2] > 100 µM | [3] 89.7 µM | [4] > 100 µM | [5] > 100 µM | [6] > 100 µM | [7] > 100 µM | [8] > 100 µM | [9] > 100 µM | [10] > 100 µM | [11] > 100 µM | [12] > 100 µM | [13] > 100 µM | [14] > 100 µM | [15] > 100 µM | [16] > 100 µM | [17] > 100 µM | [18] > 100 µM

O=C(O)CN(CC(=O)O)Cc1cc(C#Cc2ccc(C#Cc3ccccc3)cc2)cc(CN(CC(=O)O)CC(=O)O)n1
inactive: [1] 17 µM | [2] 31.6 µM | [3] 12.2 µM | [4] 10.2 µM | [5] 18.2 µM | [6] 8.53 µM | [19] 46.8 µM | [7] 12.4 µM | [8] 17.5 µM | [9] 18.7 µM | [10] 5.75 µM | [11] 22.9 µM | [12] 17.7 µM | [13] 12.9 µM | [14] 22.9 µM | [15] 20.7 µM | [20] 4.12 µM | [16] 20.3 µM | [17] 27.4 µM | [18] 32.7 µM

C=CCC12CC(=O)CCC1c1ccc(OC)cc1C2=O (centres undefined)
inactive: [1] > 100 µM | [2] > 100 µM | [3] > 100 µM | [4] > 100 µM | [5] > 100 µM | [6] > 100 µM | [7] > 100 µM | [8] > 100 µM | [9] > 100 µM | [10] > 100 µM | [11] > 100 µM | [12] > 100 µM | [13] > 100 µM | [14] > 100 µM | [15] > 100 µM | [16] > 100 µM | [17] > 100 µM | [18] > 100 µM

Cc1c(Cl)ccc2c1NC(=O)C2(O)CC(=O)c1ccc(Cl)cc1 (centres undefined)
inactive: [1] > 100 µM | [2] 76.2 µM | [3] > 55.2 µM | [4] 43.7 µM | [5] 13.9 µM | [6] 42.9 µM | [7] 33.5 µM | [8] 6.62 µM | [9] > 100 µM | [10] 97.3 µM | [11] > 100 µM | [12] 29.6 µM | [13] 35 µM | [14] 69.2 µM | [15] 65.2 µM | [16] > 55.8 µM | [17] 24.8 µM | [18] 54.5 µM

CCOC(=O)N[C@@H]1C2CC(=O)C(O2)[C@@H]1OC (some centres undefined)
inactive: [1] > 100 µM | [2] > 100 µM | [3] > 100 µM | [4] > 100 µM | [5] > 100 µM | [6] > 100 µM | [7] > 100 µM | [8] > 100 µM | [9] > 100 µM | [10] > 100 µM | [11] > 100 µM | [12] > 100 µM | [13] > 100 µM | [14] > 100 µM | [15] > 100 µM | [16] > 100 µM | [17] > 100 µM | [18] > 100 µM

COC(=O)C(=O)C1CCCCC(C2=NC3NN=C(N)N3C2=O)C1=O (centres undefined)
inactive: [1] > 100 µM | [2] > 100 µM | [3] > 100 µM | [4] > 100 µM | [5] > 100 µM | [6] > 100 µM | [7] > 100 µM | [8] > 100 µM | [9] > 100 µM | [10] > 100 µM | [11] > 100 µM | [12] > 100 µM | [13] > 100 µM | [14] > 100 µM | [15] > 100 µM | [16] > 100 µM | [17] > 100 µM | [18] > 100 µM
